Patent US6403626B1, “Benzimidazole derivatives” (Synaptic Pharmaceutical Corporation, priority 1994, dated 2002)
Like-named read-outs stand apart in the source and are kept apart here.

Key:
[1] = target: T1, α1A Human Adrenergic Receptor (Homo sapiens, UniProt P25100); assay: Equilibrium competition binding, [3H] prazosin, membranes of transfected LM(tk-) cells
T1 construct: expressed in transfected cells; host or cells: LM(tk-) cells
T1 sequence (P25100 1-572): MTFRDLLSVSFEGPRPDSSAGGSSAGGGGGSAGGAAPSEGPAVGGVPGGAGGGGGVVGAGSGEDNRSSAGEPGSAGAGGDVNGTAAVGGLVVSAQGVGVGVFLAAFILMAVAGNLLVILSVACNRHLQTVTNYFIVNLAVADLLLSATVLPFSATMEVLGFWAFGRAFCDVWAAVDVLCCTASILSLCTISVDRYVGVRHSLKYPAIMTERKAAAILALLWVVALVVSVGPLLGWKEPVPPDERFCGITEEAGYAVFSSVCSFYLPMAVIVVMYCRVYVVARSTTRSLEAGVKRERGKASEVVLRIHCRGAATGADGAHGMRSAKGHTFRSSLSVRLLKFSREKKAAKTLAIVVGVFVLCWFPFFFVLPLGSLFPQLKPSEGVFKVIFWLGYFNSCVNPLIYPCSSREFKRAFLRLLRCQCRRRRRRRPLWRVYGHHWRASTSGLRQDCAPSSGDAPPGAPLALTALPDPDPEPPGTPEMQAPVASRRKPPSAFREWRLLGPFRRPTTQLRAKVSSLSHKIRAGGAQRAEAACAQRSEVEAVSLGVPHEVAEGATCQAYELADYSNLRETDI

[2] = target: T2, α1B Human Adrenergic Receptor (Homo sapiens, UniProt P35368); assay: as above
T2 construct: The entire coding region of α1B(1563 bp); expressed in transfected cells; host or cells: LM(tk-) cells
T2 sequence (P35368 1-520): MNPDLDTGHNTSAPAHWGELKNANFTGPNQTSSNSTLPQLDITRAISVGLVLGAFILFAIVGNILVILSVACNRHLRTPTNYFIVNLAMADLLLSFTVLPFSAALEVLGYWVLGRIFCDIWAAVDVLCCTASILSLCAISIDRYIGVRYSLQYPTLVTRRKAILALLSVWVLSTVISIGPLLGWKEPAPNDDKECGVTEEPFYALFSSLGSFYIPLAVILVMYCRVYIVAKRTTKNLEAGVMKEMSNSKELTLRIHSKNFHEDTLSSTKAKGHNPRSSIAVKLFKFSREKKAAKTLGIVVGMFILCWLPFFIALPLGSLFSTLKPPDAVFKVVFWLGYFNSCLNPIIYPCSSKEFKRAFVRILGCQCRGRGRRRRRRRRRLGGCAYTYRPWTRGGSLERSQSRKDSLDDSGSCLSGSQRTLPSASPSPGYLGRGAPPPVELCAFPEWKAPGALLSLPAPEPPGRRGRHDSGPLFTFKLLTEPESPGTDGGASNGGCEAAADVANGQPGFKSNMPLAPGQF

[3] = target: T3, α2C Human Adrenergic Receptor (Homo sapiens, UniProt P18825); assay: Equilibrium competition binding, [3H] rauwolscine, membranes of transfected LM(tk-) cells
T3 sequence (P18825 1-462): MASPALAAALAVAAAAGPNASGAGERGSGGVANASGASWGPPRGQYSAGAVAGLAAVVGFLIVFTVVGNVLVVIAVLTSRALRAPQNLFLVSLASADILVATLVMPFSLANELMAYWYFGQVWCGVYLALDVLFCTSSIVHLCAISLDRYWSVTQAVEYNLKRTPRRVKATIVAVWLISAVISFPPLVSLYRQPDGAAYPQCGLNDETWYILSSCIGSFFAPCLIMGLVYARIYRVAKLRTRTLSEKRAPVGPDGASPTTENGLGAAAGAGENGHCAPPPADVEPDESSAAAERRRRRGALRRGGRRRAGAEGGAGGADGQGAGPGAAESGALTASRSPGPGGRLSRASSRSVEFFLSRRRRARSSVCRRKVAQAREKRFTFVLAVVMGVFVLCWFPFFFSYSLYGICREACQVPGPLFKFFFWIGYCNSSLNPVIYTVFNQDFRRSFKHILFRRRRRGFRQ

[4] = target: T3, α2C Human Adrenergic Receptor; assay type: cell-based; design: The entire coding region of α2C (1383 bp), including 2 bp of 5′ UT and 400 bp of 3′ UT; expressed in transfected cells; host or cells: LM(tk-) cells; conditions: for I.A Alpha-2 C: functional cAMP assay
[5] = cloned human receptor, [3H] prazosin
[6] = cloned human receptor, [3H] prazosin, read-out: pKi Alpha-1 B (converted)
[7] = cloned human receptor, [3H] prazosin, read-out: pKi Alpha-1 A (converted)
[8] = inhibition of forskolin-stimulated cAMP, NA: Not Active, read-out: pEC50 Alpha-2 C (converted)

Compound	pKi Alpha-1 A [1, 5]	pKi Alpha-1 B [2, 5]	pKi Alpha-2 C ([3]; cloned human receptor, [3H] rauwolscine)	I.A Alpha-2 C [4]	pEC50 Alpha-2 C ([4]; inhibition of forskolin-stimulated cAMP, NA: Not Active)	Ki [1] [nM]	Ki [2, 6] [nM]	Ki [3] [nM]	EC50 [4] [nM]	Ki [1, 7] [nM]	EC50 [4, 8] [nM]	Ki [2] [nM]
Cn1cnc2ccc(NC3=NCCN3)c(Br)c21 [Example 12, 3-Methyl-4-bromo-5-(imidazolin-2-ylamino)Benzimidazole]	7.02	6.46	7.59	1.00	7.76							
FC(F)(F)c1nc2ccc(NC3=NCCN3)c(Br)c2[nH]1 [Example 46, 2-Trifluoromethyl-4-bromo-5-(2-imidazolin-2-ylamino)Benzimidazole]				0.90		7080	28200					
Clc1cc(NC2=NCCN2)cc2[nH]cnc12 [Example 53, 7-Chloro-5-(2-imidazolin-2-ylamino)Benzimidazole]				1.00		309	1910	89.1	1.07			
Cc1nc2ccc(NC3=NCCN3)c(Br)c2[nH]1 [Example 42, 2-Methyl-4-bromo-5-(2-imidazolin-2-ylamino)Benzimidazole]						1620	8510	214				
Cn1cnc2cc(NC3=NCCN3)ccc21 [Example 9, 1-Methyl-5-(2-imidazolin-2-ylamino)Benzimidazole]				1.00		2750	13500					
Ic1c(NC2=NCCN2)ccc2nc[nH]c12 [Example 5, 4-Iodo-5-(2-imidazolin-2-ylamino)Benzimidazole]				1.00		537	1820	24	1.35			
c1nc2ccc(NC3=NCCN3)cc2[nH]1 [Example 1, 5-(2-Imidazolin-2-ylamino)Benzimidazole]				1.00		6760	24500	70.8	2.75			
Clc1c(NC2=NCCN2)ccc2nc[nH]c12 [Example 3, 4-Chloro-5-(2-imidazolin-2-ylamino)Benzimidazole]				1.00		537	8130	100	0.562			
Brc1cc2nc[nH]c2c(Br)c1NC1=NCCN1 [Example 50, 4,6-Dibromo-5-(2-imidazolin-2-ylamino)Benzimidazole]				1.00		35.5	166	24.5	70.8			
Cn1cnc2c(Br)c(NC3=NCCN3)ccc21 [Example 10, 1-Methyl-4-bromo-5-(2-imidazolin-2-ylamino)Benzimidazole]				1.00		617	3800	15.5	2.34			
CCCc1c(NC2=NCCN2)ccc2nc[nH]c12 [Example 7, 4-n-Propyl-5-(2-imidazolin-2-ylamino)Benzimidazole]				1.00		269	1230	41.7	6.17			
CCCCc1cc(NC2=NCCN2)cc2[nH]cnc12 [Example 56, 7-Butyl-5-(2-imidazolin-2-ylamino)Benzimidazole]				1.00		1260	5130					
CC(C)(C)c1nc2ccc(NC3=NCCN3)c(Br)c2[nH]1 [Example 45, 2-tert-Butyl-4-bromo-5-(2-imidazolin-2-ylamino)Benzimidazole]				0.60		4570	11500					
CCCCc1c(NC2=NCCN2)ccc2nc[nH]c12 [Example 8, 4-n-Butyl-5-(2-imidazolin-2-ylamino)Benzimidazole]				1.00		676	2630					
CCc1nc2ccc(NC3=NCCN3)c(Br)c2[nH]1 [Example 43, 2-Ethyl-4-bromo-5-(2-imidazolin-2-ylamino)Benzimidazole]				0.90		1740	6920					
Cc1c(N=C2NCCN2)ccc2[nH]cnc12 [Example 4, 4-Methyl-5-(2-imidazolin-2-ylamino)Benzimidazole]							2750	25.7		603	0.355	
Clc1cc(NC2=NCCN2)c(Br)c2[nH]cnc12 [Example 60, 4-Bromo-7-chloro-5-(2-imidazolin-2-ylamino)Benzimidazole]				1		224	316	16.2	0.398			
OCCn1cnc2c(Br)c(NC3=NCCN3)ccc21 [Example 38, 1-(2-Hydroxyethyl)-4-bromo-5-(2-imidazolin-2-ylamino)Benzimidazole]				1.00		7240		1290			363	17400
Brc1c(NC2=NCCN2)ccc2nc(C(c3ccccc3)c3ccccc3)[nH]c12 [Example 48, 2-Diphenylmethyl-4-bromo-5-(2-imidazolin-2-ylamino)Benzimidazole]				0.60			49	245		1230	1.35	
CC(C)c1nc2ccc(NC3=NCCN3)c(Br)c2[nH]1 [Example 44, 2-Isopropyl-4-bromo-5-(2-imidazolin-2-ylamino)Benzimidazole]				0.80		2040	5890	214			182	
Brc1c(NC2=NCCN2)ccc2nc[nH]c12 [Example 2, 4-Bromo-5-(2-imidazolin-2-ylamino)Benzimidazole]				1.00		955		97.7			117	5890
COc1ccc(Cn2cnc3c(Br)c(NC4=NCCN4)ccc32)cc1 [Example 36, 1-(4-Methoxybenzyl)-4-bromo-5-(2-imidazolin-2-ylamino)Benzimidazole]						813		166				11000
